# Reference: patent publication US12257264B2, “Combination therapy for HIV with adenosine derivative and capsid inhibitors” (Brii Biosciences, Inc., priority 2021, dated 2025)
# Values joined by “and” are separate entries in the source; they are usually repeats but may differ in a detail not shown here. Identical values can stand only once.
# Columns and labels:
# [1] = Plasma stability and conversion to EFdA
# Method: The pooled frozen plasma was thawed in a water bath at 37° C. prior to experiment. Plasma was centrifuged at 4000 rpm for 5 min and the clots were removed if any. The pH will be adjusted to 7.4±0.1 if required.
# Preparation of test compounds and positive control (propantheline bromide): 1 mM intermediate solution was prepared by diluting 10 μL of the stock solution with 90 μL MeOH; 1 mM intermediate of positive control Propantheline was prepared by diluting 10 μL of the stock solution with 90 μL ultrapure water. 100 μM dosing solution was prepared by diluting 20 μL of the intermediate solution (1 mM) with 180 μL MeOH. 98 μL of blank plasma was spiked with 2 μL of dosing solution (100 μM) to achieve 2 μM of the final concentration in duplicate and samples were incubated at 37° C. in a water bath. At each time point (0, 10, 30, 60 and 120 min), […] of stop solution (0.1% FA in MeOH containing 200 ng/mL tolbutamide and 200 ng/mL Labetalol) was added to precipitate protein and mixed thoroughly. Centrifuged sample plates at 4,000 rpm for 10 min. An aliquot of supernatant (100 μL) was transferred from each well to another plates.
# Data analysis: The % remaining of test compound after incubation in plasma was calculated using following equation: % Remaining=100×(PAR at appointed incubation time/PAR at T0 time) where PAR is the peak area ratio of analyte versus internal standard (IS) (LC/MS/MS mobile phase condition: 0.1% Formic Acid in Water/0.1% Formic Acid in Acetonitrile. The appointed incubation time points are TO (0 min), Tn (n=0, 10, 30, 60, 120 min). Liver S9 Stability
# [2] = Liver S9 stability and conversion to EFdA; assay type: in vitro ADME, human
# Method: Intermediate solution: Dilute 5 μL of compounds or controls (7-ethoxycoumarin) from stock solution (10 mM) with 495 μL MeOH (Conc.: 100 μM, 1% DMSO, 99% MeOH). Stop solution: Cold ACN (including 100 ng/mL Tolbutamide and Labetalol as internal standard). Add 2 μL test compound or control working solution/well to all plates (T0, T5, T10, T20, T30, T60, NCF60) except matrix blank. Add 600 μL/well stop solution (cold in 4° C., including 100 ng/mL Tolbutamide/100 ng/mL Labetalol) to terminate the TO plate, then put it on ice. Dispense 840 μL/well S9 solution to 96-well plate as reservoir according to plate map. Then add 100 μL/well to every plate by Apricot. Incubate S9 solution and compound at 37° C. for about 10 min except NCF60 and TO. After adding S9 solution and 98 μLPB buffer to NCF60, incubate at 37° C. without pre-warming, start timer 1. After 60 min, add 600 μL/well stop solution to terminate the reaction. After pre-warming, dispense 760 μL/well cofactor solution to 96-well plate as reservoir according to plate map. Then add 98 μL/well to every plate by Apricot to start reaction. Incubate at 37° C., start timer 2, Add 600 μL/well stop solution (cold in 4° C., including 100 ng/mL Tolbutamide and Labetalol) to terminate the reaction. Samples are centrifuged at 4000 rpm for 20 min. While centrifuging, load 8×new 96-well plate with 300 μL HPLC water, then transfer 100 μL supernatant, mix with water for LC/MS/MS, transferred to Bioanalytical Services for LC-MS/MS analysis. Use equation of first order kinetics to calculate t1/2 and CL: Equation of first order kinetics: […]
# [3] = Plasma exposures following oral administration to beagle dogs; conditions: for Prodrug formula 4-A Concentrations in Dog Plasma / EFdA Concentrations in Dog Plasma / concentration at 0.25 h / concentration at 0.5 h / concentration at 1 h: Prodrug formula 4-A PO 8.25 mg/kg; for concentration at 0.25 h / concentration at 0.5 h / concentration at 1 h: male, beagle, dog, in vivo, po, Prodrug formula 4-A Concentrations in Dog Plasma
compound,measurement,setting,value
"C#C[C@]1(COC(=O)OCc2oc(=O)oc2C)O[C@@H](n2cnc3c(N)nc(F)nc32)C[C@@H]1O [Formula 4-A, ((2R,3S,5R)-5-(6-amino-2-fluoro-9H-purin-9-yl)-2-ethynyl-3-hydroxytetrahydrofuran-2-yl)methyl ((5-methyl-2-oxo-1,3-dioxol-4-yl)methyl) carbonate]",Conversion to the target drug (EFdA) in human plasma assay,[1],converted to the target drug efficiently
same,Stability in Human Plasma Formation of EFdA,[1]; human plasma,Yes
same,half-life at 2 µM,"[1]; human, plasma, pH 7.4",< 50 min
same,Conversion to the target drug (EFdA) in liver S9 assay,[2],converted to the target drug efficiently
same,Stability in Human Liver S9 Formation of EFdA,[2]; human liver S9,Yes
same,half-life at 1 µM,"[2]; human liver S9, 37° C.",< 50 min
same,Prodrug formula 4-A Concentrations in Dog Plasma,"[3]; 0.250 hrs, individual animals, 8.25 mg/kg",1.63 ng/mL and 1.09 ng/mL
same,Prodrug formula 4-A Concentrations in Dog Plasma,"[3]; 0.500 hrs, individual animals, 8.25 mg/kg",BQL
same,Prodrug formula 4-A Concentrations in Dog Plasma,"[3]; 1.00 hrs, individual animals, 8.25 mg/kg",BQL
same,Prodrug formula 4-A Concentrations in Dog Plasma,"[3]; 2.00 hrs, individual animals",BQL
same,Prodrug formula 4-A Concentrations in Dog Plasma,"[3]; 4.00 hrs, individual animals",BQL
same,Prodrug formula 4-A Concentrations in Dog Plasma,"[3]; 6.00 hrs, individual animals",BQL
same,Prodrug formula 4-A Concentrations in Dog Plasma,"[3]; 8.00 hrs, individual animals",BQL
same,EFdA Concentrations in Dog Plasma,"[3]; 12.0 hrs, individual animals",BQL
same,Prodrug formula 4-A Concentrations in Dog Plasma,"[3]; 12.0 hrs, individual animals",BQL
same,EFdA Concentrations in Dog Plasma,"[3]; 24.0 hrs, individual animals",BQL
same,Prodrug formula 4-A Concentrations in Dog Plasma,"[3]; 24.0 hrs, individual animals",BQL
same,EFdA AUC and Cmax compared with a dose-equivalent EFdA,"[3]; dogs, oral",higher AUC and Cmax
same,Prodrug detected in the systemic circulation,"[3]; dogs, oral",minimal prodrug detected in the systemic circulation
same,concentration at 0.25 h,"[3]; 8.25 mg/kg, 0.250 hrs, Mean",1.28 ng/mL
same,concentration at 0.25 h,"[3]; 8.25 mg/kg, 0.250 hrs, individual animals",1.13 ng/mL
same,concentration at 0.5 h,"[3]; 8.25 mg/kg, 0.500 hrs, Mean",1.68 ng/mL
same,concentration at 0.5 h,"[3]; 8.25 mg/kg, 0.500 hrs, individual animals",1.68 ng/mL
same,concentration at 1 h,"[3]; 8.25 mg/kg, 1.00 hrs, Mean",1.43 ng/mL
same,concentration at 1 h,"[3]; 8.25 mg/kg, 1.00 hrs, individual animals",1.43 ng/mL
